Measurements reported in patent US20250275948A1, “(N-[4-(2,3-DIHYDRO-1H-INDEN-5-YL)-1,3-THIAZOL-2-YL]-2-[4-METHYL-4-(NAPHTHALEN-2-YL)-2,5-DIOXOIMIDAZOLIDIN-1-YL]ACETAMIDE AS STABILIZER OF CLOCK:BMAL1 INTERACTION FOR THE TREATMENT OF CIRCADIAN RHYTHM DISEASES AND DISORDERS” (KOC UNIVERSITESI, priority 2022, published 2025).

Key:
CLOCK:BMAL1 interaction = assay: Co-immunoprecipitation (Co-IP) of CLOCK with FLAG-BMAL1; type: biochemical
Protocol: To investigate the binding sites of the CLK95 on CLOCK and BMAL1, promising residues which were computationally determined to interact with small molecule were mutated via site-directed mutagenesis. […] These amino acid residues were introduced to Bmal1 and CLOCK genes by PCR based mutagenesis. FLAG-tagged pcDNA4a-Bmal1 and […] were used as template DNAs. Each PCR reaction consisted of 50 ng of template DNA, 0.2 μM primer pair, 0.2 mM dNTPs and 3 units of Pfu DNA polymerase. Then the PCR reaction was performed under these conditions: 5 minutes at 98° C. followed by 12 cycles of 1 minute at 98° C., 1 minute at 55° C. and 15 minutes at 72° C. The PCR reaction completed with a final extension step at 72° C. for 15 minutes. PCR products were analysed with 0.8% of agarose. Bands at the right size were further treated with 1 μL FastDigest Dpn I (Thermo Scientific, FD1704) for 1 hour at 37° C. to digest methylated-parental DNA. Subsequently, DH5a (a strain of E. coli) cells were transformed with the 7 μL PCR product. Standard heat-shock transformation protocol was used. Transformed cells were plated on Ampicillin (100 μg/mL) containing Luria-Bertani (LB) agar plates and incubated overnight at 37° C. Later, colonies formed on the LB ager plate were selected to culture in 5 mL LB broth containing Ampicillin (100 μg/mL). After overnight incubation at 37° C., cells were harvested and plasmid isolation was performed with Macherey Nagel's NucleoSpin Plasmid (NoLid), Mini kit. Isolated plasmids were then sent for Sanger sequencing (Macrogen) to confirm desired single-site mutation.
To assess the effect CLK95 on BMAL1-CLOCK interaction Co-IP was employed. HEK 293T cell were transfected with FLAG-tagged pcDNA4a-Bmal1 or pCMV-Sport6-CLOCK plasmids. The FLAG-tagged pcDNA4a-Bmal1-R126A and pCMV-Sport6-CLOCK-F80A-K220A mutants were used in this assay. […] The protein concentration of each lysate was determined with the Pierce™ 660 nm Protein assay (Thermo Scientific, 22660). […]

CLOCK and BMAL1 = assay: Subcellular fractionation of U2OS Bmal1-dLuc cells; type: cell-based, human; conditions: unsynchronized U2OS Bmal1-dLuc cells, 5 μM, 24 hours
Protocol: Subcellular fractionation was performed to explore if CLK95 effects the subcellular localization of core-clock proteins. U2OS Bmal1-dLuc cells were plated with a density of 40×10^4 cell/well in 6 well plate, a day prior to small molecule treatment. Following, cells were treated with either DMSO (0.25%) or 5 μM CLK95. 24 hours after small molecule treatment, cells were harvested to get fractionated. Cells were harvested with 1 mL ice cold-1×PBS, and pelleted at 5000×g for 7 minutes at 4° C. After discarding supernatants, cells were resuspended with 200 μL Cytosolic Lysis Buffer (CLB) (10 mM HEPES pH 7.9, 10 mM KCl, 0.1 mM EDTA pH 8.0, 0.05% NP-40, 1×PIC) and incubated on ice for 10 minutes. Then, samples were centrifuged at 660×g for 5 minutes (4° C.). While supernatants were transferred to new centrifuge tubes as cytosolic fractions, pellets were washed with 200 μL CLB buffer for 3 times. At the end of each wash, samples were centrifugated at 660×g for 5 minutes at 4° C. Next, cell pellets were resuspended in 100 μL Nuclear Lysis Buffer (NLB) (20 mM HEPES pH 7.9, 0.4M NaCl, 1 mM EDTA, 10% Glycerol, 1×PIC) and subjected to sonication (60% power, 10 seconds, 3 cycles) (BANDELIN SONOPULS HD 2070 homogeniser) for 2 times. This step was followed by centrifugation at 15000×g for 5 minutes with the cytosolic fractions. […]

## CC1(c2ccc3ccccc3c2)NC(=O)N(CC(=O)Nc2nc(-c3ccc4c(c3)CCC4)cs2)C1=O (stereo not shown) [CLK95]
CLOCK:BMAL1 interaction
  stability of CLOCK-BMAL1: increasing the stability of CLOCK-BMAL1
CLOCK:BMAL1 interaction; Co-IP, HEK 293T lysates
  interaction between CLOCK and BMAL1: increasing the interaction between CLOCK and BMAL1
CLOCK:BMAL1 interaction; R126A mutant Co-IP
  residue needed for binding to CLOCK:BMAL1 complex: Arg126 of BMAL1 is essential
CLOCK and BMAL1
  nuclear localization of CLOCK and BMAL1: increasing the nuclear localization of CLOCK and BMAL1
